Measurements taken from ChEMBL document CHEMBL5244280, “Evodiamine Lowers Blood Lipids by Up-Regulating the PPARγ/ABCG1 Pathway in High-Fat-Diet-Fed Mice” (J Nat Prod, 2021).
The source made the active and inactive calls. The rule behind the calls is not given here.

How the values were obtained:
Mus musculus [1] = assay: Protection against hyperlipidemia in high fat diet-fed hyperlipidemic ICR mouse model assessed as reduction in serum LDL-C content at 10 mg/kg, ig administered daily via gavage for 8 weeks by spectrophotometric analysis; format: functional; settings: po, 1344 h
Mus musculus [2] = assay: Protection against hyperlipidemia in high fat diet-fed hyperlipidemic ICR mouse model assessed as serum HDL-C content at 10 mg/kg, ig administered daily via gavage for 8 weeks by spectrophotometric analysis; format: functional, organism-based
[3] = Toxicity against normal diet-fed ICR mouse assessed as effect on plasma triglyceride content at 10 mg/kg, ig administered daily via gavage for 8 weeks by spectrophotometric analysis; format: organism-based; settings: in vivo, po, 1344 h
[4] = Toxicity against normal diet-fed ICR mouse assessed as effect on plasma LDL-C content at 10 mg/kg, ig administered daily via gavage for 8 weeks by spectrophotometric analysis; format: organism-based; settings: in vivo, po, 1344 h
Mus musculus [5] = assay: Protection against hyperlipidemia in high fat diet-fed hyperlipidemic ICR mouse model assessed as reduction in serum LDL-C content at 20 mg/kg, ig administered daily via gavage for 8 weeks by spectrophotometric analysis; format: functional, organism-based
Mus musculus [6] = assay: Protection against hyperlipidemia in high fat diet-fed hyperlipidemic ICR mouse model assessed as reduction in body weight at 10 mg/kg, ig administered daily via gavage for 8 weeks; format: functional; settings: po, 1344 h
[7] = Toxicity in normal diet fed ICR mouse assessed as ratio of liver weight to body weight at 10 mg/kg, ig administered daily via gavage for 8 weeks (reference value: 3.74 +/-0.53); format: organism-based; settings: in vivo, po, 1344 h
[8] = Toxicity in normal diet fed ICR mouse assessed as ratio of kidney weight to body weight at 10 mg/kg, ig administered daily via gavage for 8 weeks (reference value: 1.33 +/-0.12); format: organism-based; settings: in vivo, po, 1344 h
[9] = Toxicity in normal diet fed ICR mouse assessed as ratio of spleen weight to body weight at 10 mg/kg, ig administered daily via gavage for 8 weeks (reference value: 0.42 +/-0.08); format: organism-based; settings: in vivo, po, 1344 h
[10] = Toxicity in high fat diet fed hyperlipidemic ICR mouse model assessed as ratio of liver weight to body weight at 10 mg/kg, ig administered daily via gavage for 8 weeks (reference value: 4.23 +/-0.79); format: organism-based; settings: in vivo, po, 1344 h
[11] = Toxicity in high fat diet fed hyperlipidemic ICR mouse model assessed as ratio of lung weight to body weight at 10 mg/kg, ig administered daily via gavage for 8 weeks (reference value: 0.93 +/-0.28); format: organism-based; settings: in vivo, po, 1344 h
[12] = Toxicity in high fat diet fed hyperlipidemic ICR mouse model assessed as ratio of spleen weight to body weight at 10 mg/kg, ig administered daily via gavage for 8 weeks (reference value: 0.43 +/-0.11); format: organism-based; settings: in vivo, po, 1344 h
[13] = Toxicity in high fat diet fed hyperlipidemic ICR mouse model assessed as ratio of stomach weight to body weight at 10 mg/kg, ig administered daily via gavage for 8 weeks (reference value: 1.41 +/-0.34); format: organism-based; settings: in vivo, po, 1344 h
Mus musculus [14] = assay: Protection against hyperlipidemia in high fat diet-fed hyperlipidemic ICR mouse model assessed as normal and less pale colored liver at 10 to 20 mg/kg, ig administered daily via gavage for 8 weeks; format: functional, organism-based; settings: dose 10-20 mg/kg
Mus musculus [15] = assay: Protection against hyperlipidemia in high fat diet-fed hyperlipidemic ICR mouse model assessed as reduction in vacuolar degeneration of hepatocytes at 10 mg/kg, ig administered daily via gavage for 8 weeks by Hematoxylin-eosin staining based analysis; format: functional, organism-based
Mus musculus [16] = assay: Protection against hyperlipidemia in high fat diet-fed hyperlipidemic ICR mouse model assessed as reduction in hepatic triglyceride content at 10 mg/kg, ig administered daily via gavage for 8 weeks by colorimetric assay; format: functional; settings: po, 1344 h
Mus musculus [17] = assay: Protection against hyperlipidemia in high fat diet-fed hyperlipidemic ICR mouse model assessed as reduction in hepatic TBA content at 10 to 20 mg/kg, ig administered daily via gavage for 8 weeks by colorimetric assay; format: functional, organism-based; settings: dose 10-20 mg/kg
[18] = Toxicity in normal diet fed ICR mouse assessed as liver histological changes at 10 mg/kg, ig administered daily via gavage for 8 weeks by Hematoxylin and eosin staining based analysis; format: organism-based; settings: in vivo, po, 1344 h
[19] = Toxicity in normal diet fed ICR mouse assessed as hepatic triglyceride content at 10 mg/kg, ig administered daily via gavage for 8 weeks by colorimetric assay; format: organism-based; settings: in vivo, po, 1344 h
[20] = Toxicity in normal diet fed ICR mouse assessed as hepatic total cholesterol content at 10 mg/kg, ig administered daily via gavage for 8 weeks by colorimetric assay; format: organism-based; settings: in vivo, po, 1344 h
Mus musculus [21] = assay: Upregulation of SR-B1 protein expression in liver of normal diet fed ICR mouse at 10 mg/kg, ig administered daily via gavage for 8 weeks by western blotting analysis; format: functional, organism-based
Mus musculus [22] = assay: Upregulation of SR-B1 protein expression in liver of high fat diet fed hyperlipidemic ICR mouse model at 10 mg/kg, ig administered daily via gavage for 8 weeks by western blotting analysis; format: functional, organism-based
Mus musculus [23] = assay: Upregulation of ABCA1 protein expression in liver of high fat diet fed hyperlipidemic ICR mouse model at 10 mg/kg, ig administered daily via gavage for 8 weeks by western blotting analysis; format: functional, organism-based
Mus musculus [24] = assay: Upregulation of ABCG5 protein expression in liver of high fat diet fed hyperlipidemic ICR mouse model at 10 mg/kg, ig administered daily via gavage for 8 weeks by western blotting analysis; format: functional, organism-based
Mus musculus [25] = assay: Upregulation of ABCG8 protein expression in liver of high fat diet fed hyperlipidemic ICR mouse model at 10 mg/kg, ig administered daily via gavage for 8 weeks by western blotting analysis; format: functional, organism-based
Mus musculus [26] = assay: Upregulation of NPC1L1 protein expression in liver of high fat diet fed hyperlipidemic ICR mouse model at 10 mg/kg, ig administered daily via gavage for 8 weeks by western blotting analysis; format: functional, organism-based
Mus musculus [27] = assay: Upregulation of ABCG5 mRNA expression in liver of high fat diet fed hyperlipidemic ICR mouse model at 10 mg/kg, ig administered daily via gavage for 8 weeks by qPCR analysis; format: functional, organism-based
Mus musculus [28] = assay: Upregulation of NPC1 mRNA expression in liver of high fat diet fed hyperlipidemic ICR mouse model at 10 mg/kg, ig administered daily via gavage for 8 weeks by qPCR analysis; format: functional, organism-based
Mus musculus [29] = assay: Downregulation of ABCG8 mRNA expression in liver of high fat diet fed hyperlipidemic ICR mouse model at 10 mg/kg, ig administered daily via gavage for 8 weeks by qPCR analysis; format: functional, organism-based
Mus musculus [30] = assay: Upregulation of PPAR-gamma protein expression in liver of high fat diet fed hyperlipidemic ICR mouse model at 10 to 20 mg/kg, ig administered daily via gavage for 8 weeks by western blotting analysis; format: functional, organism-based; settings: dose 10-20 mg/kg
Mus musculus [31] = assay: Upregulation of PPAR-gamma mRNA expression in liver of high fat diet fed hyperlipidemic ICR mouse model at 10 to 20 mg/kg, ig administered daily via gavage for 8 weeks by qPCR analysis; format: functional, organism-based; settings: dose 10-20 mg/kg
HEK293 = assay: Agonist activity at human PPAR-beta expressed in HEK293 cells co-transfected with luciferase reporter plasmid assessed as receptor transactivation at 10 uM incubated for 18 hrs by luciferase reporter gene assay relative to control; format: cell-based
Mus musculus [32] = assay: Protection against hyperlipidemia in high fat diet-fed hyperlipidemic ICR mouse model assessed as reduction in hepatic triglyceride content at 20 mg/kg, ig administered daily via gavage for 8 weeks by colorimetric assay; format: functional, organism-based

**Q.** What does the source list for `CN1c2ccccc2C(=O)N2CCc3c([nH]c4ccccc34)C21` (stereo not drawn)?
**A.** inhibition in vivo at 10 mg/kg (Mus musculus [1]): 65.1%; Activity (Mus musculus [2]): inactive; Activity [3]: Non-Toxic; Activity [4]: Non-Toxic; Activity (Mus musculus [5]): Active; inhibition in vivo at 10 mg/kg (Mus musculus [6]): 68.1%; Ratio [7]: 3.64; Ratio [8]: 1.33; Ratio [9]: 0.41; Ratio [10]: 3.85; Ratio [11]: 0.81; Ratio [12]: 0.37; Ratio [13]: 1.22; Activity (Mus musculus [14]): Active; Activity (Mus musculus [15]): Active; inhibition in vivo at 10 mg/kg (Mus musculus [16]): 33.2%; Activity (Mus musculus [17]): Active; Activity [18]: Non-Toxic; Activity [19]: Non-Toxic; Activity [20]: Non-Toxic; Activity (Mus musculus [21]): Active; Activity (Mus musculus [22]): Active; Activity (Mus musculus [23]): inactive; Activity (Mus musculus [24]): inactive; Activity (Mus musculus [25]): inactive; Activity (Mus musculus [26]): inactive; Activity (Mus musculus [27]): inactive; Activity (Mus musculus [28]): inactive; inhibition (Mus musculus [29]): Active; Activity (Mus musculus [30]): Active; Activity (Mus musculus [31]): Active; fold change (FC) (HEK293): 1.53; Activity (Mus musculus [32]): Active
